Source: ChEMBL document CHEMBL1201862, “PubChem BioAssay data set” (2004)
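A five-concentration, 48-hour dose response in 96-well plates underlies each endpoint, interpolated linearly between surrounding concentrations. Here, GI50 denotes the concentration required for 50% inhibition of growth.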 Activity calls are given as the source filed them. Cut-off read from the data, not from the text of the source: active = GI50 up to about 1.1 µM and inactive = higher.

Key:
Test in all cases: growth of human tumour cells (NCI), 48 h
SK-MEL-28 = system: SK-MEL-28
OVCAR-3 = system: OVCAR-3
SN12C = system: SN12C
NCI-H226 = system: NCI-H226
HOP-92 = system: HOP-92
UO-31 = system: UO-31
RXF 393 = system: RXF 393
UACC-62 = system: UACC-62
SNB-75 = system: SNB-75
HCT-15 = system: HCT-15
LOX IMVI = system: LOX IMVI
HCT-116 = system: HCT-116
HCC 2998 = system: HCC 2998
SF-268 = system: SF-268
786-0 = system: 786-0
SF-539 = system: SF-539
BT-549 = system: BT-549
DU-145 = system: DU-145
MDA-N = system: MDA-N

For `CCCCCCCCCCCCCCCCCC(CCCCCCCCCCCCCCCCC)OP(=O)(O)O`, the GI50 (SK-MEL-28) was > 100 µM (inactive), the GI50 (OVCAR-3) was > 100 µM (inactive) and the GI50 (SN12C) was > 100 µM (inactive). The GI50 (NCI-H226) was > 100 µM (inactive), the GI50 (HOP-92) was > 100 µM (inactive) and the GI50 (UO-31) was > 100 µM (inactive). For the same compound, the GI50 (RXF 393) was > 100 µM (inactive), the GI50 (UACC-62) was > 100 µM (inactive) and the GI50 (SNB-75) was > 100 µM (inactive). For the same compound, the GI50 (HCT-15) was > 100 µM, the GI50 (LOX IMVI) was > 100 µM (inactive) and the GI50 (HCT-116) was > 100 µM (inactive). For the same compound, the GI50 (HCC 2998) was > 100 µM (inactive), the GI50 (SF-268) was > 100 µM (inactive) and the GI50 (786-0) was > 100 µM (inactive).
In the case of `Cc1ccc(NC(=O)CCc2cc(C(C)(C)C)nc(S)n2)cc1C`, the GI50 (SK-MEL-28) is reported as > 100 µM (inactive), the GI50 (OVCAR-3) is reported as > 100 µM (inactive) and the GI50 (SN12C) is reported as > 100 µM (inactive). For the same compound, the GI50 (NCI-H226) was > 100 µM (inactive), the GI50 (HOP-92) was > 100 µM (inactive) and the GI50 (UO-31) was > 100 µM (inactive). The GI50 (RXF 393) was > 100 µM (inactive), the GI50 (UACC-62) was > 100 µM (inactive) and the GI50 (SF-539) was > 100 µM (inactive). The GI50 (SNB-75) was > 100 µM (inactive), the GI50 (HCT-15) was > 100 µM and the GI50 (LOX IMVI) was > 100 µM (inactive). The GI50 (HCT-116) was > 100 µM (inactive), the GI50 (HCC 2998) was > 100 µM (inactive) and the GI50 (SF-268) was > 100 µM (inactive). For the same compound, the GI50 (786-0) was > 100 µM (inactive).
In the case of `O=[N+]([O-])/C(C(Cl)=C(Cl)Cl)=C1\NCCS1`, the GI50 (SK-MEL-28) is reported as 48.2 µM (inactive), the GI50 (BT-549) is reported as 70 µM (inactive) and the GI50 (OVCAR-3) is reported as 33.3 µM (inactive). For the same compound, the GI50 (SN12C) was 36.5 µM (inactive), the GI50 (NCI-H226) was > 100 µM (inactive) and the GI50 (UO-31) was 41.1 µM (inactive). The GI50 (RXF 393) was 27.9 µM (inactive), the GI50 (UACC-62) was 39.7 µM (inactive) and the GI50 (DU-145) was > 100 µM (inactive). For the same compound, the GI50 (SF-539) was 42.5 µM (inactive), the GI50 (HCT-15) was 35.6 µM and the GI50 (LOX IMVI) was 20.1 µM (inactive). For the same compound, the GI50 (HCT-116) was 43.3 µM (inactive), the GI50 (HCC 2998) was 34.4 µM (inactive) and the GI50 (SF-268) was 39.9 µM (inactive). For the same compound, the GI50 (786-0) was 36.1 µM (inactive).
With `CC(C)CC(NC(=O)C(C)(CI)Cc1ccccc1)C(=O)Nc1ccccc1` (stereo not drawn) the GI50 (OVCAR-3) was > 100 µM (inactive), the GI50 (SN12C) was > 100 µM (inactive) and the GI50 (NCI-H226) was > 100 µM (inactive). For the same compound, the GI50 (HOP-92) was > 100 µM (inactive), the GI50 (UO-31) was > 100 µM (inactive) and the GI50 (RXF 393) was > 100 µM (inactive). The GI50 (UACC-62) was > 100 µM (inactive), the GI50 (DU-145) was > 100 µM (inactive) and the GI50 (MDA-N) was > 100 µM (inactive). The GI50 (SF-539) was > 100 µM (inactive), the GI50 (SNB-75) was 86.5 µM (inactive) and the GI50 (HCT-15) was > 100 µM. For the same compound, the GI50 (LOX IMVI) was > 100 µM (inactive), the GI50 (HCT-116) was 31 µM (inactive) and the GI50 (HCC 2998) was > 100 µM (inactive). The GI50 (786-0) was > 100 µM (inactive).
